Results: ChEMBL document CHEMBL4385666, “Exploring hydroxamic acid inhibitors of HDAC1 and HDAC2 using small molecule tools and molecular or homology modelling” (Bioorg Med Chem Lett, 2019)

Legend:
[1] = biological target: Class 1 histone deacetylase (Homo sapiens, UniProt Q13547+O15379+Q92769+Q9BY41); test: Inhibition Class 1 histone deacetylase in human HeLa nuclear extracts using Fluor-de- Lys-green substrate by fluorescence assay; format: cell-free
Histone deacetylase 1 = Histone deacetylase 1 (Homo sapiens, UniProt Q13547); test: Inhibition of human recombinant HDAC1 pre-incubated for 30 mins before substrate addition and measured after 30 mins by fluorescence based assay
Histone deacetylase 2 = Histone deacetylase 2 (Homo sapiens, UniProt Q92769); test: Inhibition of human recombinant HDAC2 pre-incubated for 30 mins before substrate addition and measured after 30 mins by fluorescence based assay
Histone deacetylase 2, sequence (Q92769 whole entry): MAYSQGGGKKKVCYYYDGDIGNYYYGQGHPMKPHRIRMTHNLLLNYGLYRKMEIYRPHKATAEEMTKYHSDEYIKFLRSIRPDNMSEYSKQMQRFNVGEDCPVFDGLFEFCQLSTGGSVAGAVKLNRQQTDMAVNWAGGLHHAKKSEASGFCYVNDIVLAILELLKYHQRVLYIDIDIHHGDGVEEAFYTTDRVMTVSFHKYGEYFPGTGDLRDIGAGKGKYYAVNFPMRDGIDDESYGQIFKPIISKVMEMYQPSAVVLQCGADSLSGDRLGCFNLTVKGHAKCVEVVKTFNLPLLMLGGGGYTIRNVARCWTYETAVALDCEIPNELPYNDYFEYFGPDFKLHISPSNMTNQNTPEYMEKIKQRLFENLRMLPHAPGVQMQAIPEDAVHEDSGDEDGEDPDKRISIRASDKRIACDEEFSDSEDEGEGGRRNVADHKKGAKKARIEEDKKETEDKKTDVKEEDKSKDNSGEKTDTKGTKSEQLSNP

Histone deacetylase 1, sequence (Q13547 whole entry): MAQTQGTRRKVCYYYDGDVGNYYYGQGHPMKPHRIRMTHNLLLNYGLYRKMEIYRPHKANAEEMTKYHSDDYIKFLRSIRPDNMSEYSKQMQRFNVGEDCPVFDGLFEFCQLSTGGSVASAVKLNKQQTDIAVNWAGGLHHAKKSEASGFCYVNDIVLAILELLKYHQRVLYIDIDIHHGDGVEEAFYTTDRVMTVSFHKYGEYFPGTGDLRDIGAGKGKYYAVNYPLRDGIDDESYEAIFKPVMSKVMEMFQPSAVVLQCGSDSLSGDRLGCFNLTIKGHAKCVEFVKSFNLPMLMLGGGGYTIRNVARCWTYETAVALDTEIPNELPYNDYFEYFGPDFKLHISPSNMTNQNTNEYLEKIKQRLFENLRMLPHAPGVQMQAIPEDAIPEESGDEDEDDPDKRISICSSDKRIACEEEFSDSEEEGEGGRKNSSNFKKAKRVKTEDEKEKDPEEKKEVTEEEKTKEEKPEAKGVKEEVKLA

| IC50 [1] [nM] | IC50 (Histone deacetylase 1) [nM] | IC50 (Histone deacetylase 2) [nM] | SMILES |
| --- | --- | --- | --- |
| 278 | 610 | 1490 | COc1ccccc1CNCc1ccc(/C=C/C(=O)NO)cc1 |
| 292 | 620 | 1750 | COc1ccc(OC)c(CNCc2ccc(/C=C/C(=O)NO)cc2)c1 |
| 235 | 636 | 1080 | COc1cccc(OC)c1CNCc1ccc(/C=C/C(=O)NO)cc1 |
| 371 | 1260 | 1890 | COc1ccc(CNCc2ccc(/C=C/C(=O)NO)cc2)cc1OC |
| 195 | 381 | 926 | COc1ccc(CNCc2ccc(/C=C/C(=O)NO)cc2)cc1 |
| 296 | 602 | 950 | COc1cccc(CNCc2ccc(/C=C/C(=O)NO)cc2)c1OC |
| 415 | 837 | 1270 | COc1cc(CNCc2ccc(/C=C/C(=O)NO)cc2)cc(OC)c1 |
| 258 | 449 | 994 | COc1ccc(CNCc2ccc(/C=C/C(=O)NO)cc2)c(OC)c1 |
| 420 | 463 | 819 | COc1cccc(CNCc2ccc(/C=C/C(=O)NO)cc2)c1 |
| 370 |  |  | O=C(/C=C/c1ccc(CNCc2ccccc2)cc1)NO |
